System: Cyp1a2 mRNA in liver
Experiment: Cyp1a2 gene expression in liver (real-time PCR)
Type: in vivo, female C57BL/6 mice
Details: for BMR20TCDD Liver Cyp1a2 mRNA: 3 days after single oral dose; for REP Liver Cyp1a2 mRNA: relative to TCDD
Protocol: Animals. Eight-week-old female C57BL/6 mice (Harlan laboratories, Venray, the Netherlands) were randomly assigned to treatment groups (six animals per group) and allowed to acclimate for 1.5 weeks. The animals were housed in groups in standard cages and conditions (23 ± 2°C, 50–60% relative humidity, 12-hr dark/light cycle) with free access to food and water. Mice received a single dose of test compound by oral gavage at a dosing volume of 10 mL/kg body weight (BW). Mice treated with corn oil vehicle (10 mL/kg BW) served as controls. For each congener, five different doses were administered, ranging from 0.5–100 μg/kg BW (TCDD) to 5,000–500,000 µg/kg BW (PCB-153). Detailed information on doses is provided in Supplemental Material, Table S1 (http://dx.doi.org/10.1289/ehp.1206336). On day 3 after dosing, animals were euthanized by CO2/O2 asphyxiation, and blood was immediately collected from the abdominal aorta. The liver, thymus, spleen, and adipose tissue were removed, weighed (liver, thymus, and spleen), snap frozen, and stored at –80°C. All animal treatments were performed with permission of the Animal Ethical Committee (DEC Utrecht) and performed according to the [Law on Animal Experiments (1977)]. Animals were treated humanely and with regard for alleviation of suffering.
RNA isolation and quantitative real-time polymerase chain reaction (PCR). Total RNA was isolated from liver and PBLs using a QIAGEN RNeasy kit (QIAGEN). Purity and concentration of the isolated RNA was determined by measuring the absorbance ratio at 260/280 nm and 230/260 nm with a Nanodrop 2000 spectrophotometer (Thermo Scientific, Asheville, NC, USA). RNA was reverse transcribed to complementary DNA (cDNA) using the iScript cDNA synthesis Kit (Bio-Rad, Veenendaal, the Netherlands). Quantitative real-time PCR analyses were performed using the iQ Real-Time PCR Detection System with SYBR green (Bio-Rad). Amplification reactions were set up with […] containing 12.5 μL iQ SYBR Green Supermix (Bio-rad), 0.5 μL distilled H2O, 1 μL (10 μM) forward primer, 1 μL (10 μM) reverse primer, and 10 μL first strand cDNA (10X diluted). Primer sequences were as follows: Cyp1a1: forward-5´-GGTTAACCATGACCGGGAACT-3´ and reverse-5´-TGCCCAAACCAAAGAGAGTGA-3´ ([Schulz et al. 2012]); Cyp1a2: forward-5´-ACATTCCCAAGGAGCGCTGTATCT-3´ and reverse-5´-GTCGATGGCCGAGTTGTTATTGGT-3´ ([Flaveny et al. 2010]); Cyp1b1: forward-5´-GTGGCTGCTCATCCTCTTTACC-3´ and reverse-5´-CCCACAACCTGGTCCAACTC-3´ ([Berge et al. 2004]); β-actin: forward-5´-ATGCTCCCCGGGCTGTAT-3´ and reverse-5´-CATAGGAGTCCTTCTGACCCATTC-3´ ([Schulz et al. 2012]). All primers were run through the National Center for Biotechnology Information Primer-BLAST database (http://www.ncbi.nlm.nih.gov/tools/primer-blast/) to confirm specificity and validate for optimal annealing temperature (60°C for all primers) and efficiency. The efficiency of all primer pairs was 98–102% (tested at 60°C). The following program was used for denaturation and amplification of cDNA: 3 min at 95°C, followed by 40 cycles of 15 sec at 95°C and 45 sec at 60°C. Gene expression for each sample was expressed as threshold cycle (Ct), normalized to the reference gene β-actin (ΔCt). We calculated fold induction relative to the control group.
Data analysis. We obtained concentration–response curves using a sigmoidal dose–response nonlinear regression curve fit with variable slope (GraphPad Prism 6.01; GraphPad Software Inc., San Diego, CA, USA):
In this Hill equation, y is the dependent variable (EROD activity or fold induction of mRNA levels), x the independent variable (administered or systemic dose), E0 is the estimated background response level, Emax is the maximum response, b is the estimated median effective concentration (EC50), and n is the shaping parameter of the Hill curve.
Using the congener-specific BMR20TCDD concentration, REPs were calculated relatively to TCDD: […]

[1] = dose metric Adm dose (µg/kg BW)
[2] = dose metric Syst adipose (ng/g lipid)
[3] = dose metric Syst liver (ng/g lipid)
[4] = dose metric Syst liver (ng/g liver)
[5] = dose metric Syst plasma (ng/g lipid)

Clc1cc2oc3c(Cl)c(Cl)c(Cl)cc3c2cc1Cl [Congener 4-PeCDF, 2,3,4,7,8-pentachlorodibenzofuran]
BMR20TCDD Liver Cyp1a2 mRNA (dose metric Adm dose): 8.83 µg/kg BW | BMR20TCDD Liver Cyp1a2 mRNA (dose metric Syst adipose): 6.53 ng/g lipid | BMR20TCDD Liver Cyp1a2 mRNA (dose metric Syst plasma): 8.01 ng/g lipid | REP Liver Cyp1a2 mRNA [1]: 0.05 | REP Liver Cyp1a2 mRNA [2]: 0.3 | REP Liver Cyp1a2 mRNA [3]: 0.03 | REP Liver Cyp1a2 mRNA [4]: 0.04 | REP Liver Cyp1a2 mRNA [5]: 0.2

Clc1ccc(-c2cc(Cl)c(Cl)cc2Cl)cc1Cl [PCB-118, 2,3´,4,4´,5-pentachlorobiphenyl]
BMR20TCDD Liver Cyp1a2 mRNA (dose metric Adm dose): 15,522 µg/kg BW | BMR20TCDD Liver Cyp1a2 mRNA (dose metric Syst adipose): 117,517 ng/g lipid | BMR20TCDD Liver Cyp1a2 mRNA (dose metric Syst plasma): 103,230 ng/g lipid | REP Liver Cyp1a2 mRNA [1]: 0.00003 | REP Liver Cyp1a2 mRNA [2]: 0.00001 | REP Liver Cyp1a2 mRNA [3]: 0.0002 | REP Liver Cyp1a2 mRNA [4]: 0.0003 | REP Liver Cyp1a2 mRNA [5]: 0.00002

Clc1ccc(-c2cc(Cl)c(Cl)c(Cl)c2)cc1Cl [PCB-126, 3,3´,4,4´,5-pentachlorobiphenyl]
BMR20TCDD Liver Cyp1a2 mRNA (dose metric Adm dose): 87.4 µg/kg BW | BMR20TCDD Liver Cyp1a2 mRNA (dose metric Syst adipose): 120 ng/g lipid | BMR20TCDD Liver Cyp1a2 mRNA (dose metric Syst plasma): 135 ng/g lipid | REP Liver Cyp1a2 mRNA [1]: 0.005 | REP Liver Cyp1a2 mRNA [2]: 0.01 | REP Liver Cyp1a2 mRNA [3]: 0.002 | REP Liver Cyp1a2 mRNA [4]: 0.003 | REP Liver Cyp1a2 mRNA [5]: 0.01

Clc1ccc(-c2cc(Cl)c(Cl)c(Cl)c2Cl)cc1Cl [PCB-156, 2,3,3´,4,4´,5-hexachlorobiphenyl]
BMR20TCDD Liver Cyp1a2 mRNA (dose metric Adm dose): 12,085 µg/kg BW | BMR20TCDD Liver Cyp1a2 mRNA (dose metric Syst adipose): 22,134 ng/g lipid | BMR20TCDD Liver Cyp1a2 mRNA (dose metric Syst plasma): 60,702 ng/g lipid | REP Liver Cyp1a2 mRNA [1]: 0.00003 | REP Liver Cyp1a2 mRNA [2]: 0.00008 | REP Liver Cyp1a2 mRNA [3]: 0.0003 | REP Liver Cyp1a2 mRNA [4]: 0.0006 | REP Liver Cyp1a2 mRNA [5]: 0.00003

Clc1cc2c(cc1Cl)Oc1c(cc(Cl)c(Cl)c1Cl)O2 [PeCDD, 1,2,3,7,8-pentachlorodibenzodioxin]
BMR20TCDD Liver Cyp1a2 mRNA (dose metric Adm dose): 0.56 µg/kg BW | BMR20TCDD Liver Cyp1a2 mRNA (dose metric Syst adipose): 1.20 ng/g lipid | BMR20TCDD Liver Cyp1a2 mRNA (dose metric Syst plasma): 2.36 ng/g lipid | REP Liver Cyp1a2 mRNA [1]: 0.7 | REP Liver Cyp1a2 mRNA [2]: 1 | REP Liver Cyp1a2 mRNA [3]: 0.5 | REP Liver Cyp1a2 mRNA [4]: 0.6 | REP Liver Cyp1a2 mRNA [5]: 0.8

Clc1cc2c(cc1Cl)Oc1cc(Cl)c(Cl)cc1O2 [TCDD, 2,3,7,8-tetrachlorodibenzodioxin, reference compound]
BMR20TCDD Liver Cyp1a2 mRNA (dose metric Adm dose): 0.41 µg/kg BW | BMR20TCDD Liver Cyp1a2 mRNA (dose metric Syst adipose): 1.73 ng/g lipid | BMR20TCDD Liver Cyp1a2 mRNA (dose metric Syst plasma): 1.85 ng/g lipid | REP Liver Cyp1a2 mRNA [1]: 1 | REP Liver Cyp1a2 mRNA [2]: 1 | REP Liver Cyp1a2 mRNA [3]: 1 | REP Liver Cyp1a2 mRNA [4]: 1 | REP Liver Cyp1a2 mRNA [5]: 1
